“Also recorded” adds a separate entry of the source. Values belong to the molecule of their own block, whether it stands above or below them.
Target: T1, HDAC6 (Homo sapiens, UniProt Q9UBN7)
T1 construct: endogenous in cells; host or cells: MM1S (ATCC CRL-2974)
T1 sequence (Q9UBN7 1-1215): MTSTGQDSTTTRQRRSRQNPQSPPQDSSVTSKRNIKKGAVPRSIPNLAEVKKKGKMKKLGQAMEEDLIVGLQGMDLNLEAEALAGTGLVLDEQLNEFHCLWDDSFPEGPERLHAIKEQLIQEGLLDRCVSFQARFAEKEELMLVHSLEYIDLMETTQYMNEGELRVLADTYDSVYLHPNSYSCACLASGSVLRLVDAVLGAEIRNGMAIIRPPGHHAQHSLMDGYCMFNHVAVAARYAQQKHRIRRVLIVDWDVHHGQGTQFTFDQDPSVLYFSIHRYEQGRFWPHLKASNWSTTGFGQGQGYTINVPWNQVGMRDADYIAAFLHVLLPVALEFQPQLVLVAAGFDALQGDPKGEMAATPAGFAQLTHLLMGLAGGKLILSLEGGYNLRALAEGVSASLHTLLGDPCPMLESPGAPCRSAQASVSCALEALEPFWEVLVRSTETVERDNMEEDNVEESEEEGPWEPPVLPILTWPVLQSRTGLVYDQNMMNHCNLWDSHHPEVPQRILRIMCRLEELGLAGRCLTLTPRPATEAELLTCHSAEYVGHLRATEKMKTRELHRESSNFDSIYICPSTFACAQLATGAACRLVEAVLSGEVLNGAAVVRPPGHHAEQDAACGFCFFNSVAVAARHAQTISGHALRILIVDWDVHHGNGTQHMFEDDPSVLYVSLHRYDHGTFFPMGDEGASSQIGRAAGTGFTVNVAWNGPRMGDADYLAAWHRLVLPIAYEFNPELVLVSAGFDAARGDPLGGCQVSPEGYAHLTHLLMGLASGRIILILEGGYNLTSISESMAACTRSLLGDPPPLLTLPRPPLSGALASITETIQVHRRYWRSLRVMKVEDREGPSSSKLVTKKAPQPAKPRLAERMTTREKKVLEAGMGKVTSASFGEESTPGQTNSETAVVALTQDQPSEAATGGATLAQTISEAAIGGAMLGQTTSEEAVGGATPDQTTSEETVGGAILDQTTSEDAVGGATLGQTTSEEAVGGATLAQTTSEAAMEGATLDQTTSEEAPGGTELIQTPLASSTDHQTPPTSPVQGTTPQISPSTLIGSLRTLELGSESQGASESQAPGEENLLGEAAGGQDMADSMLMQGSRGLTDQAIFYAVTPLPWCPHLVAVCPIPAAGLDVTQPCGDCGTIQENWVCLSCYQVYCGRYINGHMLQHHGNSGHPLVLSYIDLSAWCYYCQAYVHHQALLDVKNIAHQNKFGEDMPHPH
Assay: Western blot of HDAC6 in MM1S cells
Format: cell-based
Conditions: for HDAC6 degradation activity of negative controls by western blot: data not shown
Protocol: FIGS. 10A and 10B are western blot analysis of MM1S cells treated with selected candidates from C4-lined series (FIG. 10A) and C5-lined series (FIG. 10B) for 6 h.
FIGS. 12A, 12B, and 12C are a series of western blots showing that degrader 12d selectively promotes HDAC6 degradation in MM1S cells.
FIGS. 13A and 13B are western blot analysis of MM1S cells with pre-treatment of E3 ligase ligand pomalidomide, HDAC6 inhibitor Next-A or NAE inhibitor MLN 4924 (FIG. 13A) or pre-treatment of proteasome inhibitor MG132 or Bortezomib (FIG. 13B) or vehicle (DMSO) for 1 h and it is followed by the treatment of 100 nM 2d or vehicle (DMSO) for 6 h.
FIG. 16 is a western blot of selected candidate compounds having longer linkers. MM1S cells were treated with 100 nM degraders for 6 hours and analyzed by western blot.
See FIG. 10A and FIG. 10B to confirm the ELISA results. Class II HDAC4 was selected for comparison. For selected compounds from C4- or C5-linked series, all of them presented maximal effects at 100 nM and degraded significant amount of HDAC6 at 10 nM. […] The results from Western blot are consistent with the screening results by ELISA.
To evaluate the activity and selectivity of 12d, a full dose response experiment was performed with compound concentrations ranging from 0.3 nM to 10 μM in MM1S cells (FIG. 12A) for several HDACs, IKZFs, and Ac-tubulin. […] Degrader 12d reduced HDAC6 protein content at as low as 3 nM and achieved maximal effects around 30 nM. […] See Douglass et al. 2013, supra. The degradation of IKZFs started from 30 nM and was dose-dependent. It is interesting to see the more efficient degradation of HDAC6, which requires the formation of ternary complex, than that of IKZFs, which only requires the formation of binary complex. In addition to the distinct mechanism, the different turnover rates of HDAC6 and IKZFs may also contribute to the observed results. The acetylated tubulin level was also dose-dependent. At higher concentrations (3 μM and 10 μM), tubulin acetylation was not […] in response to recovered HDAC6 expression by “hook effect”. The elevated tubulin acetylation at higher concentrations was likely due to the combination of HDAC6 degradation and HDAC6 inhibition.
To probe the efficiency of 12d, MM1S was treated with 100 nM 12d and the change of HDAC6 protein level was monitored by time. The HDAC6 degradation started around 1 h and reached maximal degradation effect at 4 h. The degradation of IKZFs was only observed after 4 h. Meanwhile, HDAC1 was not affected and the acetylation of tubulin was accumulated by time. To study the re-synthesis rate of HDAC6 after degradation, “wash-out” experiments were performed (data not shown). Cells were treated with 100 nM 12d for 6 h and then washed with PBS to remove remaining degraders. HDAC6 expression was monitored for 48 h. […] Selected degraders were also tested in other cell lines and they are effective among all tested cancer cell lines.
To support the involvement of ubiquitination-proteasome system for the decrease of HDAC6 protein level, the degrader was co-treated with binding competitors or pathway blockers. […] Moreover, it also confirmed the role of the pomalidomide moiety in modulating IKZFs. […] Additionally, proteasome inhibitor MG132 and Bortezomib were used to block the down-stream proteasome degradation. […] Acetylated tubulin level was suppressed as well. This confirms that HDAC6 degradation is responsible for the acetylation of its substrates rather than inhibition by the “warhead” moiety. To exclude the possible transcriptional impact by degraders, qRT-PCR was used to examine the mRNA level of HDAC6 and related genes (data not shown). […] This is consistent with the hypothesis that the cellular knockdown of HDAC6 is due to direct protein degradation, not by transcriptional downregulation. […]

[1] = 1 h pre-treatment, then 100 nM degrader 6 h, MM1S
[2] = 12d dose response 0.3 nM to 10 μM, MM1S

HDAC6 degradation by western blot (10 nM, 6 h, MM1S): degraded much less HDAC6
SMILES: O=C(CCCCCCC(=O)N/N=C/c1ccc(OCCOCCOCCn2cc(CNc3cccc4c3C(=O)N(C3CCC(=O)NC3=O)C4=O)nn2)cc1)NO (centres unmarked) [Compound 1]

HDAC6 recovery after wash-out (100 nM for 6 h, washed with PBS, monitored within 48 h): not fully recovered
time at which HDAC6 degradation started (100 nM, MM1S): around 1 h
time of maximal HDAC6 degradation effect (100 nM, MM1S): 4 h
HDAC6 level on co-treatment with pomalidomide or Next-A [1]: recovered HDAC6 level
degradation on co-treatment with proteasome inhibitor MG132 or Bortezomib [1]: no degradation of HDAC6
concentration at which hook effect was observed [2]: ≥ 3 µM
concentration of maximal effects on HDAC6 [2]: around 30 nM
lowest concentration reducing HDAC6 protein content [2]: 3 nM
SMILES: CCCCN(Cc1ccc(C(=O)NO)cc1)C(=O)Nc1ccc(OCCCCCn2cc(CNc3cccc4c3C(=O)N(C3CCC(=O)NC3=O)C4=O)nn2)cc1 (centres unmarked) [Compound 12d, 4-((1-butyl-3-(4-((5-(4-(((2-(2,6-dioxopiperidin-3-yl)-1,3-dioxoisoindolin-4-yl)amino)methyl)-1H-1,2,3-triazol-1-yl)pentyl)oxy)phenyl)ureido)methyl)-N-hydroxybenzamide]
degradation on co-treatment with NAE inhibitor MLN4924 [1]: abolishing the degradation of both HDAC6 and IKZFs

SMILES: CCCCN(Cc1ccc(C(=O)OC)cc1)C(=O)Nc1ccc(OCCCCCn2cc(CNc3cccc4c3C(=O)N(C3CCC(=O)NC3=O)C4=O)nn2)cc1 (centres unmarked) [Compound 13, Methyl 4-((1-butyl-3-(4-((5-(4-(((2-(2,6-dioxopiperidin-3-yl)-1,3-dioxoisoindolin-4-yl)amino)methyl)-1H-1,2,3-triazol-1-yl)pentyl)oxy)phenyl)ureido)methyl)benzoate]
HDAC6 degradation activity of negative controls by western blot (MM1S): inactive; also recorded: limited HDAC6 degradation

time at which reduction of HDAC6 expression started (time-course, MM1S): 30 min
time of maximal HDAC6 degradation (time-course, MM1S): around 4 h
SMILES: CCCCN(Cc1ccc(C(=O)NO)cc1)C(=O)Nc1ccc(OCCCCCn2cc(CNc3cccc4c3C(=O)N(C3CCC(=O)NC3=O)C4=O)nn2)cc1 (centres unmarked) [Compound 2]

HDAC6 degradation activity of negative controls by western blot (MM1S): inactive
SMILES: CCCCN(Cc1ccc(C(=O)NO)cc1)C(=O)Nc1ccc(OCCCCCn2cc(CNc3cccc4c3C(=O)N(C3CCC(=O)N(C)C3=O)C4=O)nn2)cc1 (centres unmarked) [Compound 15, 4-((1-butyl-3-(4-((5-(4-(((2-(1-methyl-2,6-dioxopiperidin-3-yl)-1,3-dioxoisoindolin-4-yl)amino)methyl)-1H-1,2,3-triazol-1-yl)pentyl)oxy)phenyl)ureido)methyl)-N-hydroxybenzamide]

Source: US11059815B2, “Synthesis of small molecule histone deacetylase 6 degraders, compounds formed thereby, and pharmaceutical compositions containing them” (Wisconsin Alumni Research Foundation, priority 2018, dated 2021)
